Laboratory results taken from publication PMC12857369 (Kidney International Reports, 2025).

Molecular target: T1, chymase (Homo sapiens, UniProt P23946)
T1 construct: gene CMA1; recombinant human chymase
T1 sequence (P23946 22-247): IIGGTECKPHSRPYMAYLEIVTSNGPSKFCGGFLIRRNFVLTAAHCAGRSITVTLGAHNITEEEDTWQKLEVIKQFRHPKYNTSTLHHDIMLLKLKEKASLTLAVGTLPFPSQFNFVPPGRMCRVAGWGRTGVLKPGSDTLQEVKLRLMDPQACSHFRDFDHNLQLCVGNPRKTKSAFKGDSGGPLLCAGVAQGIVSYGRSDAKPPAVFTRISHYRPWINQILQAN
Assay: Ang I to Ang II conversion by recombinant human chymase, LC-MS/MS dose response
Format: biochemical

With `CC(C)C[C@H](NC(=O)[C@@H](NC(=O)N[C@@H](Cc1ccccc1)C(=O)O)[C@@H]1CCN=C(N)N1)C(=O)N[C@H](C=O)Cc1ccccc1` [chymostatin] the IC50 was 60 nM.
